Source: PMC11220827 (Frontiers in Pharmacology, 2024)
Read-outs that look alike come from different tables or passages of the source.

Tests used:
HepG2 cells = assay: cells; assay type: cell-based
H295R cells [1] = details: reference: Forskolin (↑), prochloraz (↓)
Description: (§1) DMSO (1% compound stock in incubation mixture).
was measured on a Berthold luminometer.
(§2) Serial dilutions of the compounds were incubated in Tris -buffer (pH 8.0) overnight at 4°C in the
(§3) incubation mixture). After incubation, TTR-bound and free T4 were separated on a Bio-Gel P-6DG
(§4) column. The eluate was added to assay medium after which TRβ CALUX cells were exposed for 24 h
(§5) For this TRβ CALUX exposure, serum-free assay medium was used.
(§6) wells plates in assay medium, and exposed for 48h to a serial dilution of the compound in triplicate
(§7) exposure, the assay medium was analysed on the ERα and AR CALUX bioassays as described
(§8) Changes in hormone levels compared to a vehicle control exposure
(§9) Preincubation with rat liver S9 fraction
(§10) To assess the effect of metabolism on the activity of the test
(§11) compound for these assays, preincubations with rat liver S9 were performed. Compounds (10 μl
(§12) DMSO stock solution) were incubated for 0 h (control) or 3 h (test condition) in a total volume of 1
(§13) ml TRIS buffer in the presence of 1% (v/v) PB/BNF induced rat liver S9 mix (including NADPH and
(§14) an NADPH-regenerating system). After incubation, the reaction was stopped by the addition of ice
(§15) cold acetone, and samples were frozen to stimulate protein precipitation. After thawing, the
(§16) precipitated protein fraction was subsequently removed by centrifugation. The supernatant, cont aining
(§17) the metabolites and any remaining non-metabolised parent compound, was concentrated under a
(§18) gentle nitrogen flow. After evaporating to dryness, the sample was taken up in 50 μl DMSO followed
(§19) by the addition of 50 μl TRIS buffer. This extract was used for the exposure of the hTPO inhibition,
(§20) Relative light units (RLUs) of the CALUX assays were analysed as follows. For agonist assays,
(§21) background values (exposure to DMSO only) were subtracted, and the maximum activity of the
(§22) assay’s reference compound was set to 100%. For antagonist assays, the basal signal (exposure to fixed concentration of agonist only) was set to 100%. Activity of the samples was scaled accordingly,
(§23) resulting in expression of the data as “percentage of maximum reference response”. Graphs were
(§24) generated using the statistical software package GraphPad Prism V5.03. Using these graphs, lowest
(§25) effect concentrations (LOECs) and PC50 concentrations were determined; LOEC is defined as the
(§26) maximum reference compound activity for agonist assays, and 20% of the maximum reference
(§27) compound activity for antagonist assays. The PC50 is defined as the concentration where the activity
(§28) of the sample equals 50% of the maximum activity of the assay’s reference compound.
(§29) the test compound was divided by the amount of estrogens and androgens produced by the solvent
(§30) control-exposed cells. A sample was considered ‘active’ if it decreased the hormone production 0.8-

H295R cells [2] = details: reference: Forskolin (↑), prochloraz (↓); remark: listed apart in the source
Description: as §1
was measured on a Berthold luminometer.
as §2, §3, §4, §5, §6, §7, §8, §9, §10, §11, §12, §13, §14, §15, §16, §17, §18, §19, §20, §21, §22, §23, §24, §25, §26, §27, §28, §29, §30

[3] = target: T1, human thyroid peroxidase (hTPO) (Homo sapiens, UniProt P07202); details: reference
T1 sequence (P07202 19-933): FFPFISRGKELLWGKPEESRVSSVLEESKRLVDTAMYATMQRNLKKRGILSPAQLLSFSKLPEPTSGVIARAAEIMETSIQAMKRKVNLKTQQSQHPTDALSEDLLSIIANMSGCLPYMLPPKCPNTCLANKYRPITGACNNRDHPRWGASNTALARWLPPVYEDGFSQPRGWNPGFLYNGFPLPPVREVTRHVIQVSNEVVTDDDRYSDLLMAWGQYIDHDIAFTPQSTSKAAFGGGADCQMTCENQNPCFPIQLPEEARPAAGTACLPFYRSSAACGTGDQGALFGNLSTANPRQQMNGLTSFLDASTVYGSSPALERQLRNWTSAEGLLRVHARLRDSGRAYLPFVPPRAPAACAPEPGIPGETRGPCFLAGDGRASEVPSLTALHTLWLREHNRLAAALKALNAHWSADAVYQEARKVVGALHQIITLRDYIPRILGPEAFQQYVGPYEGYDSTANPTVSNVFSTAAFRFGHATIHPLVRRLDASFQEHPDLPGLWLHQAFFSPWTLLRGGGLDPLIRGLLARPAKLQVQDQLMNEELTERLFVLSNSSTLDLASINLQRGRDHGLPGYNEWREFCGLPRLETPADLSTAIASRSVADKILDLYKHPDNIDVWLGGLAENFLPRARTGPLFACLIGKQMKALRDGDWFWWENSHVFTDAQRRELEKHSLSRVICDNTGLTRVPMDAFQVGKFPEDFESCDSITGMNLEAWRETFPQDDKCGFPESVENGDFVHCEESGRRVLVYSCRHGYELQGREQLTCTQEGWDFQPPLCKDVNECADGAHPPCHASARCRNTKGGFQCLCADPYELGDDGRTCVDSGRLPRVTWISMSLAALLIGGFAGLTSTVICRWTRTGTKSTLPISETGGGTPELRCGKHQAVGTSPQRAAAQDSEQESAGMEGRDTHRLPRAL
Description: hTPO was derived from Nthy-ori 3-1 cells. Cell lysate containing hTPO in Glycine-NaOH buffer (pH
9.0) was incubated for 30 minutes at 37°C in the presence of serial dilutions of the compounds in
as §1
was measured on a Berthold luminometer.
as §9, §10
compound for these assays, preincubations with rat liver S9 were performed.

[4] = HepG2, 24 h, NR = No response observed

## [Cd+2].[Cl-].[Cl-] [Cadmium (II) chloride, reference compound]
HepG2 cells; HepG2, 24 h
  Metal stress: MTF1: MEC: 0.0751 µM
  Metal stress: metallothionein: MEC: 0.0751 µM
HepG2 cells; [4]
  Metal stress: MTF1: Effect: increase
  Metal stress: metallothionein: Effect: increase
HepG2 cells; HepG2, 24 h, read-out: Metal stress: MTF1: AC50
  AC50: 7.05 µM
HepG2 cells; HepG2, 24 h, read-out: Metal stress: metallothionein: AC50
  AC50: 7.05 µM

## C=C[C@@]1(C)CC(=O)[C@]2(O)[C@@]3(C)[C@@H](O)CCC(C)(C)[C@@H]3[C@H](O)[C@H](OC(C)=O)[C@@]2(C)O1 [Forskolin, reference compound]
H295R cells [1]
  Steroidogenesis (AR) Testosterone LOEC, reference compound: −6.0 Log M
H295R cells [2]
  Steroidogenesis (ERα) 17β-estradiol LOEC, reference compound: −6.0 Log M

## Cn1cc[nH]c1=S [Methimazole, reference compound]
[3]
  hTPO inhibition (thyroid) LOEC, reference compound: −6.3 Log M

## CCCN(CCOc1c(Cl)cc(Cl)cc1Cl)C(=O)n1ccnc1 [prochloraz, reference compound]
H295R cells [1]
  Steroidogenesis (AR) Testosterone LOEC, reference compound: −6.0 Log M
H295R cells [2]
  Steroidogenesis (ERα) 17β-estradiol LOEC, reference compound: −6.0 Log M

## CC(=O)N(O)CCCCCNC(=O)CCC(=O)N(O)CCCCCNC(=O)CCC(=O)N(O)CCCCCN.CS(=O)(=O)O [Deferoxamine mesylate salt, reference compound]
HepG2 cells
  Inflammation & pH: HIF1α: Effect: increase
  Inflammation & pH: HIF1α: MEC: 6.2 µM
  Inflammation & pH: ICAM-1: Effect: increase
  Inflammation & pH: ICAM-1: MEC: 17.4 µM
  Inflammation & pH: intracellular pH: Effect: increase
  Inflammation & pH: intracellular pH: MEC: 6.46 µM
HepG2 cells; HepG2, 24 h, read-out: Inflammation & pH: HIF1α: AC50
  AC50: 4.31 µM
HepG2 cells; HepG2, 24 h, read-out: Inflammation & pH: ICAM-1: AC50
  AC50: > 200 µM
HepG2 cells; HepG2, 24 h, read-out: Inflammation & pH: intracellular pH: AC50
  AC50: > 200 µM

## CCCCS(=N)(=O)CCC(N)C(=O)O [L-BSO, reference compound]
HepG2 cells
  GSH content: Effect: decrease
  GSH content: MEC: 0.725 µM
HepG2 cells; HepG2, 24 h, read-out: GSH content: AC50
  AC50: 37.5 µM

## CN[C@H]1CC[C@@H](c2ccc(Cl)c(Cl)c2)c2ccccc21 [Sertraline, reference compound]
HepG2 cells
  ER stress panel 2: PERK: Effect: increase
  Phospholipidosis: Effect: increase
  Steatosis: Effect: increase
HepG2 cells; Homo sapiens, HepG2, 24 h, read-out: ER stress panel 2: PERK: AC50
  AC50: > 6.25 µM
HepG2 cells; human, 24 h
  ER stress panel 2: PERK: MEC: 2.17 µM
  Phospholipidosis: Fold increase: 4.16
  Phospholipidosis: MEC: 0.0965 µM
  Steatosis: Fold increase: 2.02
  Steatosis: MEC: 8.36 µM

## Cc1oncc1C(=O)Nc1ccc(C(F)(F)F)cc1 [Leflunamide, reference compound]
HepG2 cells
  Nuclear size: Effect: increase
  Nuclear size: MEC: 1.18 µM
HepG2 cells; HepG2, 24 h, read-out: Nuclear size: AC50
  AC50: 9.87 µM

## [Cl-].[Na+] [Sodium chloride, reference compound]
HepG2 cells; HepG2, 24 h
  Osmotic & heat shock: NFAT: MEC: 1430 µM
HepG2 cells; [4]
  Osmotic & heat shock: NFAT: Effect: increase
HepG2 cells; HepG2, 24 h, read-out: Osmotic & heat shock: NFAT: AC50
  AC50: > 80000 µM
